We go through one substance from patent publication US20250213603A1, “PHARMACEUTICAL COMPOSITION FOR TREATING CANCER” (SAGA UNIVERSITY, priority 2021, published 2025).

Assay type in all cases: cell-based
Assay [1] deals with BV173. Nature of the assay: Cell proliferation inhibition, modified MTT assay (Cell Counting Kit-8). The protocol: (§1) The proliferation inhibitory action in leukemia cell lines was evaluated using a modified dimethyl-thiazole-diphenyl-tetrazolium (MTT) assay as follows.
(§2) The hepatocyte line and leukemia cell lines (K562, BV173, Ba/F3 p190, Ba/F3 p210, MYL-R, K562-IMR, and KBM5-STI) were used in this example. The FA-HP-β-CyD synthesized in Example 1 was used.
(§3) The cell viability was evaluated using the trypan blue dye exclusion method. Cell proliferation was evaluated using a Cell Counting Kit-8 (Dojindo, Japan), which is an MTT assay. 2×10^4 of each cell was seeded with 100 μL RPMI1640 medium (Sigma-Aldrich, USA) per well to a flatbottom 96-well plate (Greiner Labortechnik, Hamburg, Germany), and incubation for 72 hours was carried out with exposure to HP-β-CyD and FA-HP-β-CyD at different concentrations (0 mM (control: CT), 0.05 mM, 0.1 mM, 0.25 mM, 0.5 mM, and 1 mM).
On the technique in general: Tetrazolium assays rely on reduction of a dye to a coloured formazan, in cell work by metabolically active cells.

Assay [2] deals with Ba/F3 P190. Described as above. The protocol: as §1, §2, §3
Assay [3] relates to Ba/F3 P210. The description is as above. The conditions noted are these: Ba/F3 P210, incubation for 72 hours, average±SD of 3 independent experiments. How it is done:
as §1, §2, §3

Assay [4] relates to K562-IMR. Described as above. The conditions noted are these: incubation for 72 hours, average±SD of 3 independent experiments. How it is done:
as §1, §2, §3

Assay [5] relates to K562. The assay is described as above. The protocol:
as §1, §2, §3

For assay [6], the system named is KBM5-STI. The assay is described as above. The conditions noted are these: incubation for 72 hours, average±SD of 3 independent experiments. The protocol:
as §1, §2, §3

Assay [7] relates to MYL-R. The assay is described as above. The conditions noted are these: incubation for 72 hours, average±SD of 3 independent experiments. The protocol: as §1, §2, §3
The subject of assay [8] is hepatocyte. The assay is described as above. The conditions noted are these: hepatocyte line, incubation for 72 hours, average±SD of 3 independent experiments. How it is done: as §1, §2, §3
Assay [9] has as its system BV173. Nature of the assay: Cell proliferation inhibitory action in the presence of folic acid (MTT assay). The following applies: BV173, 5 mM, FA 2 mM, 2 hours (FIG. 4). The protocol:
(§4) The cell proliferation inhibitory action on leukemia cell lines in the presence of folic acid (FA) was evaluated as follows using the MTT assay.
(§5) Leukemia cell lines (K562 and BV173) were used in this example. The FA-HP-β-CyD synthesized in Example 1 was used.
(§6) 2×10^4 of each cell with 100 μL of medium was seeded per well to a flatbottom 96-well plate (Greiner Labortechnik, Hamburg, Germany), and incubation for 2 hours at 37° C. was carried out in combination with medium containing HP-β-CyD (5 mM) and FA-HP-β-CyD (5 mM) in the presence or absence of FA (2 mM). Evaluation was then carried out using a Cell Counting Kit-8 (Dojindo, Japan), which is a modified dimethyl-thiazole-diphenyl-tetrazolium (MTT) assay.
(§7) The evaluation here was carried out as follows, respectively, for the “CT” and “only FA” in FIG. 4. Thus, 2×10^4 of each cell with 100 μL of medium was seeded per well to a flatbottom 96-well plate and incubation was carried out for 2 hours at 37° C.; this was evaluated as “CT”. Incubation for 2 hours at 37° C. while exposed to only FA was evaluated as “only FA”.
(§8) Significant difference was established as follows. A two sample t-test was performed on the agents under investigation (FA-HP-β-CyD with FA, FA-HP-β-CyD without FA). A significant difference is established when p<0.05 in the comparison of the two samples.

Assay [10] relates to K562. The description is as above. The following applies: K562, 5 mM, FA 2 mM, 2 hours (FIG. 4). How it is done: as §4, §5, §6, §7, §8
Assay [11] relates to BV173. Put plainly: Apoptosis, Annexin V/propidium iodide staining. The following applies: BV173, 0.5, 1 and 1.5 mM, 48 hours (FIG. 5). How it is done:
(§9) The apoptosis of cells exposed to FA-HP-β-CyD was evaluated using Annexin V/propidium iodide (PI) staining as follows.
as §5
(§10) The apoptosis assay was performed by staining the cells with propidium iodide (PI) and Annexin V (BD Biosciences). The cells were cultured at a cell density of 4×10^5 cells/well on a 6-well plate and were incubated for 48 hours with FA-HP-β-CyD at different concentrations (0 mM (control: CT), 0.5 mM, 1 mM, and 1.5 mM). The cells were then stained with propidium iodide (PI) and Annexin V-APC (BD Biosciences) and analysis was performed using an FACSVerse flow cytometry system (BD Biosciences).

The test system of assay [12] is K562. Put plainly: Apoptosis, Annexin V/propidium iodide staining. The conditions noted are these: K562, 0.5, 1 and 1.5 mM, 48 hours (FIG. 5). How it is done: as §9, §5, §10
For assay [13], the system named is BV173. Nature of the assay: Effect of autophagy inhibition on the cell proliferation inhibitory effect. The conditions noted are these: 5 mM FA-HP-β-CyD or 15 mM HP-β-CyD, chloroquine, bafilomycin A1 or LY294002 (FIG. 8). How it is done:
(§11) The effect of autophagy inhibition on the cell proliferation inhibitory effect was evaluated as follows.
as §5
(§12) 2×10^5 of each cell with 100 μL RPMI1640 medium (Sigma-Aldrich, USA) was seeded per well to a flatbottom 96-well plate (Greiner Labortechnik, Hamburg, Germany), and treatment was carried out for 2 hours at 37° C. with 5 mM FA-HP-β-CyD and 15 mM HP-β-CyD. Pretreatment was then carried out for 24 hours with the autophagy inhibitors chloroquine (20 μM) (FUJIFILM Wako Pure Chemical Corporation), bafilomycin A1 (1 nM) (Funakoshi), or LY294002 (50 μM) (FUJIFILM Wako Pure Chemical Corporation). Cell proliferation was then evaluated using a Cell Counting Kit-8 (Dojindo, Japan), which is a modified dimethyl-thiazole-diphenyl-tetrazolium (MTT) assay.
(§13) Here, the “CT” in FIG. 8 was evaluated as follows. Thus, 2×10^5 of each cell with 100 μL RPMI1640 medium was seeded per well to a flatbottom 96-well plate and culture was carried out for 2 hours+24 hours as in the exposure groups, but without exposure to the agent or autophagy inhibitor, and this was used as the CT. This CT was compared with the exposure groups.
(§14) Significant difference was determined as follows. That is, the data were analyzed using a two-sided Student's t-test without a comparison table. A value of P<0.05 was considered to indicate a significant difference.

The subject of assay [14] is K562. The description is as above. The following applies: 5 mM FA-HP-β-CyD or 15 mM HP-β-CyD, chloroquine, bafilomycin A1 or LY294002 (FIG. 8). The protocol:
as §11, §5, §12, §13, §14

By IC50 is commonly meant the concentration that gives 50% inhibition. Lower therefore signals higher potency. For “folic acid-appended hydroxypropyl-β-cyclodextrin [FA-HP-β-CyD]”, the cell proliferation result in assay [1] (BV173, 0.05-1 mM, 72 hours (FIG. 2)) was “inhibited in a dose-dependent manner”; in assay [2] (Ba/F3 p190, 0.05-1 mM, 72 hours (FIG. 2)), “inhibited in a dose-dependent manner”; in [5] (K562, 0.05-1 mM, 72 hours (FIG. 2)), “inhibited in a dose-dependent manner”. For the same substance, the half-maximal inhibitory concentration (IC50) in [1] (BV173, incubation for 72 hours, average±SD of 3 independent experiments) came out at 170 ± 64 µM; in [2] (Ba/F3 P190, incubation for 72 hours, average±SD of 3 independent experiments), 910 ± 160 µM; in assay [3], 960 ± 17 µM; in assay [4], 700 ± 55 µM; in assay [5] (K562, incubation for 72 hours, average±SD of 3 independent experiments) it was 690 ± 190 µM; in assay [6] it was 800 ± 120 µM. Besides, the 50% inhibitory concentration (IC50) in assay [7] was 930 ± 110 µM; in assay [8], 20100 ± 4500 µM. In addition, the “antitumor activity in the presence of FA compared to without FA” value in assay [9] and in assay [10] was “significantly reduced” each time. The apoptosis induction entry in assay [11] and in assay [12] was “induce apoptosis in a concentration dependent manner” each time. Also, the “cell proliferation inhibitory capability on addition of an autophagy inhibitor” value in assay [13] and in assay [14] was “reduced by the addition of an autophagy inhibitor” throughout.
